Calls of active or inactive are those of the source. The calls are words filed in the database; no cut-off is given here.
Columns and labels:
SARS-CoV-2 [1] = assay: (§1) Antiviral activity against SARS-CoV-2 infected in African green monkey Vero E6 cells assessed as reduction in viral replication pre-infected with cells for 1 hr followed by compound treatment and measured after 3 days by RT-qPCR analysis; assay type: functional, organism-based; settings: Severe acute respiratory syndrome coronavirus 2, Vero C1008
[2] = target: Replicase polyprotein 1ab (Severe acute respiratory syndrome coronavirus 2, UniProt P0DTD1); assay: Inhibition of N-terminal hexa-histidine tagged SARS-CoV-2 main protease expressed in Escherichia coli BL21 (DE3) using HiLyte Fluor 488TM-ESATLQSGLRKAK-QXL520TM-NH2 as substrate by FRET assay
SARS-CoV-2 [3] = assay: as §1, with “Potency index, ratio of nirmatrelvir EC50 to test compound EC50 for antiviral” for “Antiviral”; assay type: functional, Severe acute respiratory syndrome coronavirus 2; settings: time 3 day
SARS-CoV-2 [4] = assay: Antiviral activity against SARS-CoV-2 WK-521 infected in African green monkey VeroE6/TMPRSS2 cells assessed as reduction in virus infectivity at 10 to 100 uM by immunocytochemistry analysis; assay type: functional, organism-based; settings: Severe acute respiratory syndrome coronavirus 2, dose 10-100 µM
SARS-CoV-2 [5] = assay: Antiviral activity against SARS-CoV-2 WK-521 infected in African green monkey VeroE6/TMPRSS2 cells assessed as reduction in virus infectivity at 1 uM by immunocytochemistry analysis; assay type: functional, organism-based; settings: Severe acute respiratory syndrome coronavirus 2

SMILES	EC50 (SARS-CoV-2 [1]) [nM]	Ki [2] [nM]	Ratio EC50 (SARS-CoV-2 [3])	Activity (SARS-CoV-2 [4])	Activity (SARS-CoV-2 [5])
CC(C)(C)[C@H](NC(=O)C(Cl)(Cl)Cl)C(=O)N1C[C@H]2[C@@H]([C@H]1C(=O)N[C@H](C#N)C[C@@H]1CCNC1=O)C2(C)C	1600	0.2			
CC(C)(C)[C@H](NC(=O)OCc1ccncc1)C(=O)N1C[C@H]2[C@@H]([C@H]1C(=O)N[C@H](C#N)C[C@@H]1CCNC1=O)C2(C)C	40100	0.49			
CC(C)(C)[C@H](NC(=O)c1ccccc1)C(=O)N1C[C@H]2[C@@H]([C@H]1C(=O)N[C@H](C#N)C[C@@H]1CCNC1=O)C2(C)C	17000	36.9			
CC(C)(C)[C@H](NC(=O)C(F)(F)F)C(=O)N1C[C@H]2[C@@H]([C@H]1C(=O)N[C@H](C#N)C[C@@H]1CCCNC1=O)C2(C)C	260	0.04	7	Active	
CC(C)(C)[C@H](NC(=O)C(F)(F)F)C(=O)N1C[C@H]2[C@@H]([C@H]1C(=O)N(C(=O)C(F)(F)F)[C@H](C#N)C[C@@H]1CCNC1=O)C2(C)C	100000	32300			
CC(C)(C)[C@H](NC(=O)OCc1cccnc1)C(=O)N1C[C@H]2[C@@H]([C@H]1C(=O)N[C@H](C#N)C[C@@H]1CCNC1=O)C2(C)C	35	0.09			
CC(C)(C)[C@H](NC(=O)OCc1ccccn1)C(=O)N1C[C@H]2[C@@H]([C@H]1C(=O)N[C@H](C#N)C[C@@H]1CCNC1=O)C2(C)C	29700	32.2			
CC(C)(C)[C@H](NC(=O)C(Cl)(Cl)Cl)C(=O)N1C[C@H]2[C@@H]([C@H]1C(=O)N[C@H](C#N)C[C@@H]1CCCNC1=O)C2(C)C	270	1.1	>7		
CC(C)(C)[C@H](NC(=O)C(F)(F)F)C(=O)N1C[C@H]2[C@@H]([C@H]1C(=O)N[C@H](C#N)C[C@@H]1CCNC1=O)C2(C)C				Active	inactive
CC(C)(C)[C@H](NC(=O)OCc1cccnc1)C(=O)N1C[C@H]2[C@@H]([C@H]1C(=O)N[C@H](C#N)C[C@@H]1CCCNC1=O)C2(C)C	3400	0.094			
CC(C)(C)[C@H](NC(=O)OCc1ccccc1)C(=O)N1C[C@H]2[C@@H]([C@H]1C(=O)N[C@H](C#N)C[C@@H]1CCNC1=O)C2(C)C	290	0.025			
CC(=O)N[C@H](C(=O)N1C[C@H]2[C@@H]([C@H]1C(=O)N[C@H](C#N)C[C@@H]1CCNC1=O)C2(C)C)C(C)(C)C	4000	0.44			
CC(C)(C)NC(=O)N[C@H](C(=O)N1C[C@H]2[C@@H]([C@H]1C(=O)N[C@H](C#N)C[C@@H]1CCNC1=O)C2(C)C)C(C)(C)C	100000				
CCC(CC)COC(=O)[C@H](C)N[P@](=O)(OC[C@H]1O[C@@](C#N)(c2ccc3c(N)ncnn23)[C@H](O)[C@@H]1O)Oc1ccccc1	3200				
CC(C)(C)C(=O)N[C@H](C(=O)N1C[C@H]2[C@@H]([C@H]1C(=O)N[C@H](C#N)C[C@@H]1CCNC1=O)C2(C)C)C(C)(C)C	2300	22.1			
CC(C)(C)[C@H](NC(=O)OCc1ccncc1)C(=O)N1C[C@H]2[C@@H]([C@H]1C(=O)N[C@H](C#N)C[C@@H]1CCCNC1=O)C2(C)C	27100	7.8			

Reference: ChEMBL document CHEMBL5543094, “Exploration of P1 and P4 modifications of nirmatrelvir: Design, synthesis, biological evaluation, and X-ray structural studies of SARS-CoV-2 Mpro inhibitors” (Eur J Med Chem, 2024)
